Values of other authors as cited in patent publication US8101589B2, “Nitric oxide-releasing molecules” (Noxilizer, Inc., priority 2004, dated 2012).

Conditions: literature (Traube, 1898)

## methylene bisdiazeniumdiolate
  NO release in solution: inability to release NO
